Source: PMC7791840, “The R-enantiomer of ketorolac reduces ovarian cancer tumor burden in vivo” (BMC Cancer, 2021)
Counter-ions that a name gives are not always drawn.

Columns and labels:
[1] = Ketorolac enantiomers in mouse blood/serum by HPLC after two-week treatment; type: in vivo, mice
Description: For two-week tumor studies, 1 × 10^6 non-treated SKOV3ip-GFP cells were i.p. injected. All mice started R-ketorolac treatment one day prior to cell injection and continued treatment until conclusion of the study 14 days later. Mice were imaged using a Light Tools imaging system (Synopsys Optical Solutions, Westminster CO) with long pass GFP filters. Three images per mouse were captured to ensure all tumors were counted. Green fluorescent tumors were identified and counted in the peritoneal cavity as single tumors if there was a distinct border of non-fluorescent tissue. […] Blood was collected via cardiac puncture and ketorolac enantiomer concentrations were measured by HPLC analysis as described in Supplemental Methods (Additional File 1: Supplemental Methods). […]
SKOV3ip cells were modified to express GFP-Rac1 by transfection with pcDNA3-EGFP-Rac1-wt (Catalog # 12980, Addgene) as described for SKOV3ip-GFP cells under Methods. Rac1 overexpression quantification and verification was completed by western blot and qPCR. […]
Omental tissue was harvested and stored on ice in PBS for no more than 1 hour before analysis. Omenta were blotted dry on lab tissue and weight was measured using an analytical balance (Denver Instruments Company, A -160). […]
Samples were then centrifuged at 4000x g for 10 minutes at 4°C. […] Ketorolac was detected using a UV spectrometer set at UV310. […]

[2] = humans, multiple dosing regimens over 5 days; cited from earlier work

| Structure (SMILES) | Accumulation with repeated dosing ([1]; mice, daily dosing 14 days) | concentration at 14 day ([1]; mouse, serum, at conclusion of chronic administration (14 day) tumor study, 1 mg/kg twice daily oral, read-out: Steady state blood concentration of R-ketorolac) [ng/mL] | Accumulation of enantiomers with multiple dosing [2] |
| --- | --- | --- | --- |
| O=C(c1ccccc1)c1ccc2n1CC[C@H]2C(=O)O [R-ketorolac] | does not appear to accumulate with repeated dosing | ~1400 |  |
| O=C(c1ccccc1)c1ccc2n1CCC2C(=O)O (stereo not drawn) [R−/S-ketorolac, ketorolac tromethamine salt] |  |  | did not result in accumulation of either enantiomer |
